Results taken from publication PMC6706640, “Systematic mapping of protein‐metabolite interactions in central metabolism of Escherichia coli” (Molecular Systems Biology, 2019).

Tests used:
[1] = target: T1, NADP+-dependent glucose-6-phosphate dehydrogenase (Zwf) (Escherichia coli, UniProt P0AC53); experiment: ligand-detected T1rho 1H NMR; inhibition checked by NADPH formation assay; assay type: biochemical; details: NMR: 15 uM monomer, 200 uM metabolite in mix, pH 7.5, 298 K, 5 mM MgCl2; activity: 2 and 10 mM GTP, 2 mM G6P, 1 mM NADP+, 30 C
T1 construct: full-length His-tagged protein from ASKA library clone (E. coli K-12 ORF collection)
T1 sequence (P0AC53 whole entry): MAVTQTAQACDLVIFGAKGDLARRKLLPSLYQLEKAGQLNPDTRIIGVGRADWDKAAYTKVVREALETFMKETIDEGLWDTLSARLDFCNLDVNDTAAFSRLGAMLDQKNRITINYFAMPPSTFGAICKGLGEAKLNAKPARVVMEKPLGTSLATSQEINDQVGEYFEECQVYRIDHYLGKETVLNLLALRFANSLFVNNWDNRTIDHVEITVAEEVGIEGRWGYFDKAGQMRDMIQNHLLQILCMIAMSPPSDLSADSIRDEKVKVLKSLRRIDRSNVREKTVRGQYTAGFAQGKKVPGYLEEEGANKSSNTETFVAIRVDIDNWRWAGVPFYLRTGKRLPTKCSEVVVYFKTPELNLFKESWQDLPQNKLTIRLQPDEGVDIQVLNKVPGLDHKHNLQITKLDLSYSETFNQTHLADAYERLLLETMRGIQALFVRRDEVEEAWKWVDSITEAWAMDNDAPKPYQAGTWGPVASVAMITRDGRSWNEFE

enolase (Eno) = target: T2, enolase (Eno) (Escherichia coli, UniProt P0A6P9); experiment: ligand-detected T1rho 1H NMR; assay type: binding; details: 15 uM monomer, 200 uM metabolite in mix, pH 7.5, 298 K, 5 mM MgCl2
T2 construct: full-length His-tagged protein from ASKA library clone (E. coli K-12 ORF collection)
T2 sequence (P0A6P9 2-432): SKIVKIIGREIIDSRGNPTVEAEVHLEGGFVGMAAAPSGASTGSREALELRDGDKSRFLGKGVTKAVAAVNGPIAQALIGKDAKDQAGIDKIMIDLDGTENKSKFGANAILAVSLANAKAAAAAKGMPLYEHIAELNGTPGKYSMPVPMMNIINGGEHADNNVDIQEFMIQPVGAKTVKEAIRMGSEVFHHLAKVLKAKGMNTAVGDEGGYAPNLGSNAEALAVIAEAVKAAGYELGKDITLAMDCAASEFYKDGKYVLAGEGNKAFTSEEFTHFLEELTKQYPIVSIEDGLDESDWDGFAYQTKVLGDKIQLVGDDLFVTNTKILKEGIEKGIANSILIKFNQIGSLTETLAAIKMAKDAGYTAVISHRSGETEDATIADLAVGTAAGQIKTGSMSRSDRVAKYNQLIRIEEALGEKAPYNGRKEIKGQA

[2] = target: T3, 6-phosphofructokinase I (PfkA) (Escherichia coli, UniProt P0A796); experiment: ligand-detected T1rho 1H NMR; assay type: binding; details: 15 uM monomer, 200 uM metabolite in mix, pH 7.5, 298 K, 5 mM MgCl2
T3 construct: full-length His-tagged protein from ASKA library clone (E. coli K-12 ORF collection)
T3 sequence (P0A796 1-320): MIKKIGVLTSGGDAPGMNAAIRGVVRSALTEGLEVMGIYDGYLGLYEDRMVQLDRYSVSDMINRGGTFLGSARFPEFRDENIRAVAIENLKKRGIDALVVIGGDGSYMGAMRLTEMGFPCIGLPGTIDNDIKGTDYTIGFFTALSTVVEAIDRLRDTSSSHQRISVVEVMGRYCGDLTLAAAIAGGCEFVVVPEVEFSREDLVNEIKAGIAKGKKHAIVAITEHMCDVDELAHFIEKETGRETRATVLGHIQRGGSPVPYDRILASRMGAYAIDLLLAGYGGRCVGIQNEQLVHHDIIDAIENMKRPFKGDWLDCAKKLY

With `Nc1nc2c(ncn2[C@@H]2O[C@H](COP(=O)(O)OP(=O)(O)OP(=O)(O)O)[C@@H](O)[C@H]2O)c(=O)[nH]1` [GTP] as the molecule, how does the ΔRF [1] read?
The ΔRF was “ATP and GTP indeed inhibited Zwf even at physiological concentrations of MgCl2”.

How did the ΔRF (enolase (Eno)) turn out when `C=C(OP(=O)(O)O)C(=O)O` [phosphoenolpyruvate] was run?
Its ΔRF is “two of which were detected in both datasets (Eno–PEP and PfkA–AMP)”.

With `Nc1ncnc2c1ncn2[C@@H]1O[C@H](COP(=O)(O)O)[C@@H](O)[C@H]1O` [AMP] as the molecule, how does the ΔRF [2] read?
The ΔRF was “two of which were detected in both datasets (Eno–PEP and PfkA–AMP)”.
